Here are results for 15 compounds from patent US7741354B2, “Inhibitors of glutaminyl cyclase” (Probiodrug AG, priority 2006, dated 2010).

In the first test the target is hQC (Homo sapiens, UniProt Q16769). The test can be described thus: Fluorometric (fluorescent) assay of hQC inhibition, IC50. The conditions noted are these: hQC inhibition; read-out: IC50. The test is classed as biochemical. A digest of the protocol: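 Two coupled fluorometric formats at 30° C, pH 8.0 Tris/HCl with EDTA: H-Gln-βNA at 0.2 mM read at 320/410 nm, or H-Gln-AMC at varied levels read at 380/460 nm, each started by adding QC.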
Sequence of hQC (Q16769 29-361): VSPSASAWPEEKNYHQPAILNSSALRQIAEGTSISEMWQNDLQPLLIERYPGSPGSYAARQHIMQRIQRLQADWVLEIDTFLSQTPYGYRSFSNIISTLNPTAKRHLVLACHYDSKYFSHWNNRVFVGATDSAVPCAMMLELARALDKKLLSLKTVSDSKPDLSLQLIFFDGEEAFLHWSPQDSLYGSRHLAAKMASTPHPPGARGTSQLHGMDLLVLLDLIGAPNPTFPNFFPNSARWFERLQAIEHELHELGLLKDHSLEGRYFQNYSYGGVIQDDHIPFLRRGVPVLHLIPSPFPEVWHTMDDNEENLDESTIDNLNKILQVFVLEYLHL
One may read the IC50 as the point on the concentration scale where inhibition reaches its midpoint. For `Cc1cc(C)cc(C(Nc2ccc3[nH]cnc3c2)c2nnnn2CC(=O)N2CCc3ccccc3C2)c1` (centres unmarked) [compound 137, 2-{5-[(1H-Benzoimidazol-5-ylamino)-(3,5-dimethyl-phenyl)-methyl]-tetrazol-1-yl}-1-(3,4-dihydro-1H-isoquinolin-2-yl)-ethanone], the IC50 turned out to be 4.9 µM.

For the compound `COC(=O)c1cccc(C(Nc2ccc3[nH]cnc3c2)c2nnnn2CC2CCCO2)c1` (centres unmarked) [compound 154, 3-{(1H-Benzoimidazol-5-ylamino)-[1-(tetrahydro-furan-2-ylmethyl)-1H-tetrazol-5-yl]-methyl}-benzoic acid methyl ester], the IC50 stood at 5.8 µM.

As for `O=c1c(C(Nc2ccc3[nH]cnc3c2)c2nnnn2CC2CCCO2)coc2ccccc12` (centres unmarked) [compound 159, 3-{(1H-Benzoimidazol-5-ylamino)-[1-(tetrahydro-furan-2-ylmethyl)-1H-tetrazol-5-yl]-mthyl}-chromen-4-one], the IC50 turned out to be 9.4 µM.

Consider `Cc1cc(C(Nc2ccc3[nH]cnc3c2)c2nnnn2CC2CCCO2)cc(C)c1O` (centres unmarked) [compound 131, 4-{(1H-Benzoimidazol-5-ylamino)-[1-(tetrahydro-furan-2-ylmethyl)-1H-tetrazol-5-yl]-methyl}-2,6-dimethyl-phenol], for which the IC50 was 6.7 µM.

For `Brc1cc(Br)cc(C(Nc2ccc3[nH]cnc3c2)c2nnnn2C(c2ccccc2)c2ccccc2)c1` (centres unmarked) [compound 186, [(1-Benzhydryl-1H-tetrazol-5-yl)-(3,5-dibromo-phenyl)-methyl]-(1H-benzoimidazol-5-yl)-amine], the IC50 is 5.8 µM.

In the case of `Brc1cc(Br)cc(C(Nc2ccc3[nH]cnc3c2)c2nnnn2-c2ccc(Oc3ccccc3)cc2)c1` (centres unmarked) [compound 178, (1H-Benzoimidazol-5-yl)-{(3,5-dibromo-phenyl)-[1-(4-phenoxy-phenyl)-1H-tetrazol-5-yl]-methyl}-amine], the IC50 came out at 5.8 µM.

Turning to `C/C=C/C=C/C(Nc1ccc2[nH]cnc2c1)c1nnnn1CCc1cccs1` (centres unmarked) [compound 161, (1H-Benzoimidazol-5-yl)-{(2E,4E)-1-[1-(2-thiophen-2-yl-ethyl)-1H-tetrazol-5-yl]-hexa-2,4-dienyl}-amine], the 50% inhibitory concentration (IC50) worked out at 5.8 µM.

The test is the same for the next values; noted with them: purified compound from preparative synthesis; fluorescent assay; read-out: IC50 hQC.
For `Cc1ccc(O)c(C(NCCCn2ccnc2)c2nnnn2Cc2ccc(Cl)cc2)c1` (centres unmarked) [Compound 3, 2-[[1-(4-Chloro-benzyl)-1H-tetrazol-5-yl]-(3-imidazol-1-yl-propylamino)-methyl]-4-methyl-phenol], the IC50 was found to be 0.584 µM.

Consider `CN(C)CCn1nnnc1C(NCCCn1ccnc1)C1CCC=CO1` (centres unmarked) [Compound 38, {(3,4-Dihydro-2H-pyran-2-yl)-[1-(2-dimethylamino-ethyl)-1H-tetrazol-5-yl]-methyl}-(3-imidazol-1-yl-propyl)-amine], for which the IC50 amounted to 2.88 µM.

Staying with this test, now noted: read-out: IC50.
With `CCOC(=O)C1CC1C(Nc1ccc2[nH]cnc2c1)c1nnnn1CCc1cccs1` (centres unmarked) [compound 104], the IC50 stood at 4 µM.

For the compound `Cc1ccc(O)c(C(NCCCn2ccnc2)c2nnnn2Cc2ccc(Cl)cc2)c1` (centres unmarked) [Compound 3, 2-[[1-(4-Chloro-benzyl)-1H-tetrazol-5-yl]-(3-imidazol-1-yl-propylamino)-methyl]-4-methyl-phenol], the half-inhibitory concentration (IC50) was 0.4 µM.

As for `COC(=O)Cn1nnnc1C1(NCCCn2ccnc2)CCC1` [compound 49, {5-[1-(3-Imidazol-1-yl-propylamino)-cyclobutyl]-tetrazol-1-yl}-acetic methyl ester], the IC50 was 0.4 µM.

As for `Clc1ccc(Cn2nnnc2C(NCCCn2ccnc2)c2ccc(Cl)c(Cl)c2)cc1` (centres unmarked) [compound 1, [[1-(4-Chloro-benzyl)-1H-tetrazol-5-yl]-(3,4-dichloro-phenyl)-methyl]-(3-imidazol-1-yl-propyl)-amine], the IC50 was 2.2 µM.

In the case of `COCCn1nnnc1C(NCCCn1ccnc1)c1cc(C)ccc1O` (centres unmarked) [compound 39, 2-{(3-Imidazol-1-yl-propylamino)-[1-(2-methoxy-ethyl)-1H-tetrazol-5-yl]-methyl}-4-methyl-phenol], the 50% inhibitory concentration (IC50) came out at 8.5 µM.

As for `CCCCn1nnnc1C(NCCCn1ccnc1)c1cc(C)c(C)cc1C` (centres unmarked) [compound 24, [(1-Butyl-1H-tetrazol-5-yl)-(2,4,5-trimethyl-phenyl)-methy]-(3-imidazol-1-yl-propyl)-amine], the IC50 was determined as 4.9 µM.

On to `CN(C)CCn1nnnc1C(NCCCn1ccnc1)C1CCC=CO1` (centres unmarked) [Compound 38, {(3,4-Dihydro-2H-pyran-2-yl)-[1-(2-dimethylamino-ethyl)-1H-tetrazol-5-yl]-methyl}-(3-imidazol-1-yl-propyl)-amine], for which the half-inhibitory concentration (IC50) is 0.4 µM.

Turning to `c1nc2cc(NC(c3ccc4nsnc4c3)c3nnnn3CC3CCCO3)ccc2[nH]1` (centres unmarked) [compound 105], the IC50 stood at 4.9 µM.
